Calls of active or inactive are those of the source. The rule behind the calls is not given here.
What was measured:
[1] = biological target: Beta-secretase 1 (Homo sapiens, UniProt P56817); experiment: Inhibition of BACE1-mediated cleavage of amyloid precursor protein after 16 hrs by spectrophotometry
[2] = Inhibition of chymotrypsin in absence of Triton X-100
[3] = Inhibition of chymotrypsin in presence of 0.01% Triton X-100

Chain of Beta-secretase 1 (P56817 whole entry): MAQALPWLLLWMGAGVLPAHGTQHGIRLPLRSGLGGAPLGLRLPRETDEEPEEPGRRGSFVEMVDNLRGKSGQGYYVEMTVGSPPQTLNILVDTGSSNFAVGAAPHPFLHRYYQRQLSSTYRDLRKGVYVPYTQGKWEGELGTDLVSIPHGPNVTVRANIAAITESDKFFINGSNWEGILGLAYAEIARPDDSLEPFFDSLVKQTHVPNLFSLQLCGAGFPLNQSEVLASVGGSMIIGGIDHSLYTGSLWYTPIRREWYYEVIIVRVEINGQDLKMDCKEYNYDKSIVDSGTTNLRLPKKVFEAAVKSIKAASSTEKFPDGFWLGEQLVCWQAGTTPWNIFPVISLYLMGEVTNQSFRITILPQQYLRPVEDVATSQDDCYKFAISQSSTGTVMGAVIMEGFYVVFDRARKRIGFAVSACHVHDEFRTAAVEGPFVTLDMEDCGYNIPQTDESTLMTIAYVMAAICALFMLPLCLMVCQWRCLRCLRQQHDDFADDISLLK

Structure (SMILES) | inhibition [1] | IC50 [1] | IC50 [2] | IC50 [3]
C=C(C)C(/C=C\[C@@H](C)[C@H]1CC[C@H]2[C@@H]3C[C@H](O)[C@H]4C[C@H](O)[C@@H](O)C[C@]4(C)[C@H]3CC[C@]12C)C(C)C (stereo partly drawn) | inactive |  |  | 
CC(C)C(/C=C/[C@@H](C)[C@H]1CC[C@H]2[C@@H]3CC=C4C[C@@H](O)CC[C@]4(C)[C@H]3CC[C@]12C)C(C)C | inactive |  |  | 
CC(C)C(/C=C/[C@@H](C)[C@H]1CC[C@H]2[C@@H]3C[C@H](O)[C@H]4C[C@H](O)[C@@H](O)C[C@]4(C)[C@H]3CC[C@]12C)C(C)C | inactive |  |  | 
CC(C)C(/C=C\[C@@H](C)[C@H]1CC[C@H]2[C@@H]3C[C@H](O)[C@H]4C[C@H](O)[C@@H](O)C[C@]4(C)[C@H]3CC[C@]12C)C(C)C | inactive |  |  | 
CC(C)C(/C=C\[C@@H](C)[C@H]1CC[C@H]2[C@@H]3C[C@H](OS(=O)(=O)O)[C@H]4C[C@H](OS(=O)(=O)O)[C@@H](OS(=O)(=O)O)C[C@]4(C)[C@H]3CC[C@]12C)C(C)C [TOPSENTINOL K TRISULFATE] | Dose-dependent effect | 1200 nM | 2700 nM | 34600 nM
